# Experimental data: article PMC10296415, “Methyl-Thiol-Bridged Oxadiazole and Triazole Heterocycles as Inhibitors of NF-κB in Chronic Myelogenous Leukemia Cells” (Biomedicines, 2023)
# Columns and labels:
# NF-κB-p65 = assay: Immunocytochemistry of p65 nuclear translocation in CML cells; format: cell-based, human; settings: 4c 30 µM 2 h, then TNFα 0.5 nM 10 min
# Experimental: CML cells (1 × 10^6 cells/well) were treated with 4c (0 or 30 µM) for 2 h, followed by TNFα (0.5 nM) addition for 10 min. Further, the CML cells were fixed, permeabilized, and blocked with 5% BSA-PBS. The cells were visualized by using primary anti-p65 antibodies and secondary antibodies called Alexa Fluor® 594 donkey anti-rabbit IgG (H + L). Nuclei were stained with DAPI, and the immobilized cells were mounted with Fluorescent Mounting Medium (Golden Bridge International Labs, Mukilteo, WA, USA) and finally quantified using an Olympus FluoView FV1000 confocal microscope (Tokyo, Japan).
# [1] = tested on: CML cells (KMB5, KCL22, LAMA84, and K562 cell lines); assay: MTT cell viability assay, CML cells; format: cell-based, human; settings: 0, 5, 10, 15, 30, 50 µM, 24 h
# Experimental: (§1) MCF-7 cells were purchased from Procell Life Science and Technology Co., Ltd., Wuhan, China, and cultured in MEM or Leibovitz’s L-15 medium containing 2% FBS. MCF-7 cells were maintained in a 5% CO2-humidified atmosphere at 37 °C. KCL22, LAMA84, and K562 cells were obtained from the American Type Culture Collection (Manassas, VA, USA). The KBM5 cell line was previously provided by Dr. Bharat Aggarwal (University of Texas M.D. Anderson Cancer Center, Houston, TX, USA). KBM5 cells were cultured in IMDM medium with 10% inactivated FBS and 1% penicillin-streptomycin. KCL22, LAMA84, and K562 cells were cultured in RPMI with 10% FBS and 1% penicillin-streptomycin antibiotics and maintained at 37 °C in a 5% CO2 chamber.
# (§2) Cells (1 × 10^4 cells/well) were seeded on a 96-well plate and treated with 4c (0, 5, 10, 15, 30, 50 µM) for 24 h. After 24 h of treatment, 30 µL of MTT solution (2 mg/mL) for 2 h, followed by MTT lysis overnight. Cell viability was analyzed by measuring the absorbance of lysed MTT crystals using VARIOSKAN LUX (Thermo Fisher Scientific Inc., Waltham, MA, USA) at 570 nm.
# MCF-7 cell line = assay: MTT cell viability assay, MCF-7; format: cell-based
# Experimental: as §1, §2
# [2] = tested on: survivin, MMP-9, Bcl-2/xl, VEGF, COX-2, PARP; assay: Western blot of NF-κB regulated proteins and PARP in CML cells; format: cell-based, human; settings: 4c 30 µM pretreatment, TNFα 0.5 nM for 0, 6, 12, 24 h
# Experimental: (§3) CML cells were treated with compound 4c, harvested, and the cell lysates were obtained. The required proteins of our interest were separated on SDS-PAGE and transferred into the nitrocellulose membrane. The membrane was incubated with primary antibody and HRP-conjugated secondary antibody in a sequential manner. The ECL kit (EZ-Western Lumi Femto, DOZEN) was used to detect the respective proteins.
# [3] = tested on: COX-2 binding to p65 promoter; assay: ChIP assay in CML cells; format: cell-based, human; settings: 4c 0, 5, 15, 30 µM
# Experimental: CML cells (1 × 10^6 cells/well) were incubated with compound 4c (5, 15, 30 µM) for 24 h and immunoprecipitated with anti-NF-κB p65 antibody. RT-PCR was performed with COX-2 at 94 °C for 5 min, 94 °C for 30 s, 58 °C for 30 s, 72 °C for 30 s with 30 cycles, and extension at 72 for 7 min. All the experiments were performed 3 times as individual repeats.
# MCF-10A cells = assay: Cytotoxicity assay, MCF-10A; format: cell-based; settings: Homo sapiens, MCF-10A; normal mammary epithelial cells
# Experimental: as §2
# [4] = MTT cell viability assay, PBMC; format: cell-based; settings: normal PBMC cells, 30 and 50 µM
# Experimental: as §2
# [5] = tested on: p-IKKα/β, p-IκBα, phospho-p65; assay: Western blot of NF-κB complex subunits in CML cells; format: cell-based, human; settings: 4c 30 µM pre-treatment, TNFα 0.5 nM
# Experimental: as §3
# NF-κB = assay: EMSA of TNFα-induced NF-κB DNA binding in CML cells; format: cell-based, human; settings: 4c 0, 5, 15, 30 µM 2 h, then TNFα 0.5 nM 10 min; nuclear extracts
# Experimental: CML cells (1 × 10^6 cells/well) were treated with indicated concentrations of 4c (0, 5, 15, 30 µM) for 2 h, then TNFα (0.5 nM) for 10 min. Nuclei extracts were prepared from whole cell pellets and incubated with NF-κB oligonucleotides (5′-[…]-3′ and 5′-[…]-3′), and Oct-1 (5′-[…]-3′ and 5′-[…] -[…]-3′) was used for loading control. The protein–DNA complex was run on a 5% gel, and the respective proteins were detected using the EMSA kit (Waltham, MA, USA).
structure (smiles),measurement,setting,value
"COc1ccc(Cc2nnc(SCc3cn(-c4ccc(Cl)c(Cl)c4)nn3)o2)cc1 [Compound 4c, 2-(((1-(3,4-Dichlorophenyl)-1H-1,2,3-triazol-4-yl)methyl)thio)-5-(4-methoxybenzyl)-1,3,4-oxadiazole]",translocation of NF-κB-p65 to nuclei,NF-κB-p65,suppressed the translocation of NF-κB-p65 to nuclei
same,cell viability in CML cells,[1],concentration-dependent loss of cell viability
same,IC50,"MCF-7 cell line; Homo sapiens, MCF7, viability of MCF-7 cell line",9 to 16 µM
same,IC50,MCF-7 cell line; viability of MCF-7 cell line,7.4 ± 0.87 µM
same,cleavage of PARP,[2],enhanced the cleavage of PARP
same,"expression of anti-apoptotic proteins (survivin, MMP-9, Bcl-2/xl, VEGF, COX-2)",[2],suppressed the expression of these proteins
same,p65 binding to the COX-2 promoter,[3],markedly inhibited COX-2 binding to the p65 promoter
same,IC50,MCF-10A cells,> 100 µM
same,viability at 24 h,[4],> 80%
same,p-IKKα/β and p-IκBα induced by TNFα,[5]; cytoplasmic extracts,inhibited
same,phospho-p65 in nuclei,[5]; nuclear extracts,suppressed phospho-p65 in nuclei
same,binding of NF-κB to DNA induced by TNFα,NF-κB,substantially inhibited
